From patent US10364245B2 (CHIESI FARMACEUTICI S.p.A., priority 2017, dated 2019) come the findings set out here.

Assay [1] deals with Peripheral Blood Mononuclear Cells (PBMCs), TNFα release. Kind of assay: LPS-stimulated PBMC TNFα release assay. The settings on record: human PBMC, LPS (10 ng/ml), 18 h, compound 1 h before LPS; read-out: LPS-stimulated PBMC TNFα release inhibition. The assay is classed as cell-based. As to the method:
LPS-Stimulated PBMC TNFα Release Assay
Peripheral Blood Mononuclear Cells (PBMCs) were isolated from healthy human volunteer blood using a standard density gradient centrifugation technique. Citrated blood was placed onto Histopaque™ and centrifuged. The PBMCs were removed from the density gradient interface and washed in phosphate buffered saline (PBS). The PBMCs were suspended in RPMI 1640 medium (without serum), dispensed into a 96-well plate and incubated at 37° C. for 3 h in a humidified incubator. After incubation, the medium was replaced (with medium containing 1% foetal bovine serum) and the plate incubated at 37° C., for 1 h, in the presence of test compound or the appropriate vehicle. LPS (10 ng/ml), or an appropriate vehicle control, was then added to the cells and the plate returned to the incubator for 18 h. Cell-free supernatants were removed and assayed for TNFα levels using MSD plates on the Sector Imager 6000 (MesoScale).
A dose response curve to each test compound was performed and the effect of compound in each experiment was expressed as a percentage inhibition of the control TNFα release. Dose response curves were plotted and compound potency (IC50) was determined. Compounds were tested in at least three separate experiments.

The target of a further assay is T1, p38 alpha (Homo sapiens, UniProt Q16539).
T1 construct: purchased Invitrogen PV3304
T1 sequence (Q16539 whole entry): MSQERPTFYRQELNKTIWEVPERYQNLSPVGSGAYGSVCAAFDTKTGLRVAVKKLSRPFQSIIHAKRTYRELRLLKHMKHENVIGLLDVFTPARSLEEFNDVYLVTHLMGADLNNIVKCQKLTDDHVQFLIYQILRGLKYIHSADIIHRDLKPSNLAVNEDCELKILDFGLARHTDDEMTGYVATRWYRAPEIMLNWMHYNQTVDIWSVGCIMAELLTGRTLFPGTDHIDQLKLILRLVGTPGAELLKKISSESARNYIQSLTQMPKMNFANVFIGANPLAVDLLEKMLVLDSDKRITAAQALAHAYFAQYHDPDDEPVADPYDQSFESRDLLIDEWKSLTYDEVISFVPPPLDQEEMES
Kind of assay: P38 alpha enzyme inhibition assay (Alphascreen kinase activity assay). The class given is biochemical. The following applies: 100 pM p38 alpha, 2 hours preincubation at 25° C., 250 μM ATP, ATF-2 fusion protein; read-out: p38α inhibition. In short, it runs like this: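 Phosphorylation of ATF-2 fusion protein (0.3 μg/ml) read by AlphaScreen with anti-phospho-ATF2 antibody after 1 h kinase reaction at 25 °C, initiated by 250 μM ATP. Compounds first incubated 2 h at 25 °C with 100 pM p38 alpha in pH 7.5 HEPES buffer, 1% DMSO. IC50 derived from concentration-response data.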
(Alpha assays give light when donor and acceptor beads are brought close together.)

Where a name gives a salt, the structure may show the parent alone. Some results are limits rather than exact numbers.

Turning to `CN1CCC[C@@]1(C)c1nnc2ccc(O[C@@H]3CC[C@H](NC(=O)Nc4cc(C(C)(C)C)nc(NS(C)(=O)=O)n4)c4ccccc43)cn12` [Example 30, N-(4-(tert-Butyl)-6-(3-((1S,4R)-4-((3-((S)-1,2-dimethylpyrrolidin-2-yl)-[1,2,4]triazolo[4,3-a]pyridin-6-yl)oxy)-1,2,3,4-tetrahydronaphthalen-1-yl)ureido)pyrimidin-2-yl)methanesulfonamide], the IC50 fell in the range of 1 to 5 nM in assay [1] and 1 to 10 nM at p38 alpha.

Take `CN(C)CCNC(=O)c1nc(NC(=O)N[C@H]2CC[C@@H](Oc3ccc4nnc(C5(C)CC5)n4c3)c3ccccc32)cc(C(C)(C)C)n1` [Example 32, 4-(tert-Butyl)-N-(2-(dimethylamino)ethyl)-6-(3-((1S,4R)-4-((3-(1-methylcyclopropyl)-[1,2,4]triazolo[4,3-a]pyridin-6-yl)oxy)-1,2,3,4-tetrahydronaphthalen-1-yl)ureido)pyrimidine-2-carboxamide]: the IC50 in assay [1] is greater than 5 nM; at p38 alpha, less than 1 nM.

On to `CN(C)CCNC(=O)c1nc(NC(=O)N[C@H]2CC[C@@H](Oc3ccc4nnc([C@]5(C)CCCN5)n4c3)c3ccccc32)cc(C(C)(C)C)n1` [Example 34, 4-(tert-Butyl)-N-(2-(dimethylamino)ethyl)-6-(3-((1S,4R)-4-((3-((S)-2-methylpyrrolidin-2-yl)-[1,2,4]triazolo[4,3-a]pyridin-6-yl)oxy)-1,2,3,4-tetrahydronaphthalen-1-yl)ureido)pyrimidine-2-carboxamide], for which the values for the IC50 (in assay [1]; on p38 alpha) were greater than 5 nM and 1 to 10 nM, respectively.

As to `COc1ncc(C(C)(C)C)cc1NC(=O)N[C@H]1CC[C@@H](Oc2ccc3nnc([C@@H]4CCCN4C)n3c2)c2ccccc21` [Example 35, 1-(5-(tert-Butyl)-2-methoxypyridin-3-yl)-3-((1S,4R)-4-((3-((S)-1-methylpyrrolidin-2-yl)-[1,2,4]triazolo[4,3-a]pyridin-6-yl)oxy)-1,2,3,4-tetrahydronaphthalen-1-yl)urea hydrochloride Salt], the IC50 (in assay [1]; on p38 alpha) was less than 1 nM throughout.

Turning to `CCOC(=O)c1nc(NC(=O)N[C@H]2CC[C@@H](Oc3ccc4nnc([C@]5(C)CCCN5C)n4c3)c3ccccc32)cc(C(C)(C)C)n1` [Example 36, Ethyl 4-(tert-butyl)-6-(3-((1S,4R)-4-((3-((S)-1,2-dimethylpyrrolidin-2-yl)-[1,2,4]triazolo[4,3-a]pyridin-6-yl)oxy)-1,2,3,4-tetrahydronaphthalen-1-yl)ureido)pyrimidine-2-carboxylate], the IC50 in assay [1] was less than 1 nM; at p38 alpha, 1 to 10 nM.

Consider `C[C@H]1CCCCN1c1nnc2ccc(O[C@@H]3CC[C@H](NC(=O)Nc4cc(C(C)(C)C)nc(C(=O)NCCN(C)C)n4)c4ccccc43)cn12` [Example 37, 4-(tert-Butyl)-N-(2-(dimethylamino)ethyl)-6-(3-((1S,4R)-4-((3-((S)-2-methylpiperidin-1-yl)-[1,2,4]triazolo[4,3-a]pyridin-6-yl)oxy)-1,2,3,4-tetrahydronaphthalen-1-yl)ureido)pyrimidine-2-carboxamide], for which the IC50 in assay [1] is greater than 5 nM; on p38 alpha, less than 1 nM.

Turning to `CNC(=O)c1nc(NC(=O)N[C@H]2CC[C@@H](Oc3ccc4nnc([C@]5(C)CCCN5C)n4c3)c3ccccc32)cc(C(C)(C)C)n1` [Example 38, 4-(tert-Butyl)-6-(3-((1S,4R)-4-((3-((S)-1,2-dimethylpyrrolidin-2-yl)-[1,2,4]triazolo[4,3-a]pyridin-6-yl)oxy)-1,2,3,4-tetrahydronaphthalen-1-yl)ureido)-N-methylpyrimidine-2-carboxamide], the IC50 (in assay [1]; at p38 alpha) was less than 1 nM each time.

In the case of `CN1CCC[C@]1(C)c1nnc2ccc(O[C@@H]3CC[C@H](NC(=O)Nc4cc(C(C)(C)C)cc(C#N)n4)c4ccccc43)cn12` [Example 39, 1-(4-(tert-Butyl)-6-cyanopyridin-2-yl)-3-((1S,4R)-4-((3-((R)-1,2-dimethylpyrrolidin-2-yl)-[1,2,4]triazolo[4,3-a]pyridin-6-yl)oxy)-1,2,3,4-tetrahydronaphthalen-1-yl)urea], the IC50 was less than 1 nM in assay [1] and 1 to 10 nM on p38 alpha.

Take `Cc1nc(NC(=O)N[C@H]2CC[C@@H](Oc3ccc4nnc([C@]5(C)CCCN5C)n4c3)c3ccccc32)cc(C(C)(C)C)n1` [Example 40, 1-(6-(tert-Butyl)-2-methylpyrimidin-4-yl)-3-((1S,4R)-4-((3-((S)-1,2-dimethylpyrrolidin-2-yl)-[1,2,4]triazolo[4,3-a]pyridin-6-yl)oxy)-1,2,3,4-tetrahydronaphthalen-1-yl)urea]: the IC50 in assay [1] was 1 to 5 nM; on p38 alpha, less than 1 nM.

With `COCc1nc(NC(=O)N[C@H]2CC[C@@H](Oc3ccc4nnc([C@]5(C)CCCN5C)n4c3)c3ccccc32)cc(C(C)(C)C)n1` [Example 43, 1-(6-(tert-Butyl)-2-(methoxymethyl)pyrimidin-4-yl)-3-((1S,4R)-4-((3-((S)-1,2-dimethylpyrrolidin-2-yl)-[1,2,4]triazolo[4,3-a]pyridin-6-yl)oxy)-1,2,3,4-tetrahydronaphthalen-1-yl)urea], the figures for the IC50 (in assay [1]; on p38 alpha) were 1 to 5 nM and 1 to 10 nM, respectively.

As for `CN1CCC[C@@]1(C)c1nnc2ccc(O[C@@H]3CC[C@H](NC(=O)Nc4cc(C(C)(C)C)ccn4)c4ccccc43)cn12` [Example 44, 1-(4-(tert-Butyl)pyridin-2-yl)-3-((1S,4R)-4-((3-((S)-1,2-dimethylpyrrolidin-2-yl)-[1,2,4]triazolo[4,3-a]pyridin-6-yl)oxy)-1,2,3,4-tetrahydronaphthalen-1-yl)urea], the IC50 in assay [1] was 1 to 5 nM; on p38 alpha, less than 1 nM.

`C[C@H]1CCCCN1c1nnc2ccc(O[C@@H]3CC[C@H](NC(=O)Nc4cc(C(C)(C)C)ncn4)c4ccccc43)cn12` [Example 45, 1-(6-(tert-Butyl)pyrimidin-4-yl)-3-((1S,4R)-4-((3-((S)-2-methylpiperidin-1-yl)-[1,2,4]triazolo[4,3-a]pyridin-6-yl)oxy)-1,2,3,4-tetrahydronaphthalen-1-yl)urea]: the IC50 in assay [1] was 1 to 5 nM; at p38 alpha, less than 1 nM.

In the case of `CN1CCC[C@H]1c1nnc2ccc(O[C@@H]3CC[C@H](NC(=O)Nc4cc(C(C)(C)C)ncn4)c4ccccc43)cn12` [Example 46, 1-(6-(tert-Butyl)pyrimidin-4-yl)-3-((1S,4R)-4-((3-((S)-1-methylpyrrolidin-2-yl)-[1,2,4]triazolo[4,3-a]pyridine-6-yl)oxy)-1,2,3,4-tetrahydronaphthalene-1-yl)urea Hydrochloride], the IC50 was 1 to 5 nM in assay [1] and less than 1 nM on p38 alpha.

As for `CC(C)N1CCC[C@H]1c1nnc2ccc(O[C@@H]3CC[C@H](NC(=O)Nc4cc(C(C)(C)C)ncn4)c4ccccc43)cn12` [Example 47, 1-(6-(tert-Butyl)pyrimidin-4-yl)-3-((1S,4R)-4-((3-((S)-1-isopropylpyrrolidin-2-yl)-[1,2,4]triazolo[4,3-a]pyridine-6-yl)oxy)-1,2,3,4-tetrahydronaphthalene-1-yl)urea Hydrochloride], the IC50 was greater than 5 nM in assay [1] and less than 1 nM at p38 alpha.

In the case of `CSc1nc(NC(=O)N[C@H]2CC[C@@H](Oc3ccc4nnc([C@]5(C)CCCN5C)n4c3)c3ccccc32)cc(C(C)(C)C)n1` [Example 49, 1-(6-(tert-Butyl)-2-(methylthio)pyrimidin-4-yl)-3-((1S,4R)-4-((3-((S)-1,2-dimethylpyrrolidin-2-yl)-[1,2,4]triazolo[4,3-a]pyridine-6-yl)oxy)-1,2,3,4-tetrahydronaphthalen-1-yl)urea], the IC50 in assay [1] was greater than 5 nM; on p38 alpha it was 1 to 10 nM.

On to `Cc1ncc(C(C)(C)C)cc1NC(=O)N[C@H]1CC[C@@H](Oc2ccc3nnc([C@]4(C)CCCN4C)n3c2)c2ccccc21` [Example 50, 1-(5-(tert-Butyl)-2-methylpyridin-3-yl)-3-((1S,4R)-4-((3-((S)-1,2-dimethylpyrrolidin-2-yl)-[1,2,4]triazolo[4,3-a]pyridin-6-yl)oxy)-1,2,3,4-tetrahydronaphthalen-1-yl)urea], for which the IC50 (in assay [1]; at p38 alpha) was less than 1 nM in each case.

As to `CN1CCC[C@@]1(C)c1nnc2ccc(O[C@@H]3CC[C@H](NC(=O)Nc4cc(CO)nc(C(C)(C)C)c4)c4ccccc43)cn12` [Example 51, 1-(2-(tert-Butyl)-6-(hydroxymethyl)pyridin-4-yl)-3-((1S,4R)-4-((3-((S)-1,2-dimethylpyrrolidin-2-yl)-[1,2,4]triazolo[4,3-a]pyridin-6-yl)oxy)-1,2,3,4-tetrahydronaphthalen-1-yl)urea], the IC50 (in assay [1]; at p38 alpha) was less than 1 nM each time.

As for `COc1ncc(C(C)(C)C)cc1NC(=O)N[C@H]1CC[C@@H](Oc2ccc3nnc([C@]4(C)CCCN4C)n3c2)c2ccccc21` [Example 52, 1-(5-(tert-Butyl)-2-methoxypyridin-3-yl)-3-((1S,4R)-4-((3-((S)-1,2-dimethylpyrrolidin-2-yl)-[1,2,4]triazolo[4,3-a]pyridin-6-yl)oxy)-1,2,3,4-tetrahydronaphthalen-1-yl)urea], the IC50 was less than 1 nM in assay [1] and 1 to 10 nM at p38 alpha.
